From US6383745B1, “Methods of screening for anti-microbial utilizing aarC and compositions thereof” (priority 1997, dated 2002)

Assays:
[1] = system: P. stuartii; conditions: cited from earlier work; for resistance rates being reported: P. stuartii, first- and second-generation cephalosporins susceptible to its β-lactamases
[2] = system: P. stuartii PR500; test: Level of aminoglycoside resistance of strain PR500; format: cell-based, Providencia stuartii; conditions: PR500 (PR50 containing pR401 and pACYC184.aarG)
Protocol: Therefore, strain PR500, which is a derivative of the wild-type P. stuartii PR50 [Rather, P. et al., J. Bacteriol. 175:6492-6498 (1993)], was used. PR500 was generated by introducing into PR50 both pR401 (aac(2′)-lacZ) and pACYC184.aarG, a compatible pACYC184 derivative containing the aarG gene. PR500 forms white colonies on plates containing X-gal and has levels of aminoglycoside resistance to 4 μg/ml of gentamicin. Selection of mutants was achieved by plating approximately 10^8 cells of PR500 on LB plates containing 15 μg/ml of gentamicin and X-gal (to select and identify regulatory mutants), ampicillin (150 μg/ml) to maintain pR401 and chloramphenicol (100 μg/ml) to maintain pACYC184.aarG. As observed previously, colonies arose at a frequency of […] [Rather, P. et al., J. Bacteriol. 175:6492-6498 (1993)]. […] While not limiting the present invention to any particular mechanism, these colonies presumably resulted from mutations in a trans-acting regulator of aac(2′)-la since expression of both the chromosomal copy of aac(2′)-la and the plasmid encoded aac(2′)-lacZ fusion were increased. One class of mutants which formed small blue colonies was identified and a representative isolate, PR60, was characterized. Introduction by electroporation (Gene Pulser, Biorad) of the previously cloned aarA, aarB, and aarD genes [Macinga, D. R. et al., Mol. Microbiol. […]

Row | Compound | resistance rates being reported [1] [%] | levels of aminoglycoside resistance [2] [µg/mL] | proportions of P. stuartii resistant ([1]; both in wards where the drug is widely used and in others (e.g., geriatric wards) where it was not used)
1 | CC(=O)OCC1=C(C(=O)O)N2C(=O)[C@@H](NC(=O)Cc3cccs3)[C@H]2SC1 [cephalothin] | 97 |  | 
2 | CC1=C(C(=O)O)N2C(=O)[C@@H](NC(=O)[C@H](N)c3ccccc3)[C@H]2SC1 [cephalexin] | 100 |  | 
3 | gentamicin |  | 4 | 80-100%
4 | Cc1nnc(SCC2=C(C(=O)O)N3C(=O)[C@@H](NC(=O)Cn4cnnn4)[C@H]3SC2)s1 [cefazolin] | 94 |  | 
5 | O=C(Cc1cccs1)N[C@@H]1C(=O)N2C(C(=O)[O-])=C(C[n+]3ccccc3)CS[C@H]12 [cephaloridine] | 82 |  | 
